Assays:
Assay type in all cases: cell-based
Fusarium graminearum = conditions: compound identified in active HPLC fraction; active when halo diameter superior to 5 mm
Puccinia striiformis = Puccinia striiformis liquid-based screening assay of extract fractions; conditions: compound identified in active HPLC fraction; active when percentage of inhibition superior to 50%
Zymoseptoria tritici = tested on: Zymoseptoria tritici

Row | Compound | Active against: (Fusarium graminearum) | Active against: (Puccinia striiformis) | Active against: (Zymoseptoria tritici)
1 | C[C@@H]1C/C=C/C=C/C=C/C=C/[C@H](O[C@@H]2O[C@H](C)[C@@H](O)[C@H](N)[C@@H]2O)C[C@@H]2O[C@](O)(C[C@@H](O)C[C@H]3O[C@@H]3/C=C/C(=O)O1)C[C@H](O)[C@H]2C(=O)O [Pimaricin/Natamycin, Pimaricin, reference compound] | F. graminearum | P. striiformis | Z. tritici
2 | CCCCCCCCCCCCCC(=O)NCCC[N+](C)(C)CC(=O)[O-] [N-Myristylamidopropyl-N,N-dimethylbetaine] | F. graminearum | P. striiformis | Z. tritici
3 | C=C/C(C)=C/[C@H](C)C(=O)C[C@H](O)CC1CC(=O)NC(=O)C1 [Streptimidone] | F. graminearum | P. striiformis | Z. tritici
4 | Albofungin | F. graminearum | P. striiformis | Z. tritici
5 | Enactin Ia/Ib | F. graminearum | P. striiformis | Z. tritici
6 | Lauramidopropyl betaine | F. graminearum | P. striiformis | Z. tritici
